From patent US20130109616A1, “ANTIMICROBIAL PEPTIDES” (priority 2010, published 2013)
“Also recorded” adds a separate entry of the source.

Assays:
[1] = tested on: B. anthracis UM23-CI2 spores; type: cell-based, Bacillus anthracis
[2] = tested on: B. anthracis UM23-CI2 vegetative cells; type: cell-based, Bacillus anthracis
[3] = tested on: Burkholderia cepacia J2540; type: cell-based
[4] = tested on: E. coli; test: Modified microtitre broth dilution, IC50/IC90; type: cell-based, Escherichia coli; design: unit not given here
[5] = tested on: Vaccinia virus; type: cell-based
[6] = tested on: Staphylococcus aureus (NC131142); test: Serial dilution growth/killing assay; type: cell-based; details: peptides C-terminally amidated
[7] = tested on: Candida albicans (SC5314); test: Serial dilution growth/killing assay; type: cell-based; details: serial dilutions, 14 hours at 30° C., FIG. 6; peptides C-terminally amidated
[8] = tested on: subtilisin or V8 protease; test: Protease resistance: membrane-binding ELISA after protease pre-incubation; details: subtilisin and/or V8 protease, 30 minutes at room temperature, FIG. 1
[9] = tested on: Bacillus subtilis membranes; test: Membrane-binding ELISA; details: expressed peptide fused to 3×FLAG-10×His, no protease

FKRIVQRIKDFLRKLVPRIMS [Peptide H04]
bactericidal activity against Bacillus anthracis spores (in words) [1]: improved bactericidal activity | duration of antibacterial activity, spores [1]: still effective at the end of the 24-hour period | change in cell number, exponential phase cells [2]: further reductions in cell number | duration of antibacterial activity, vegetative cells [2]: still effective at the end of the 24-hour period | activity against B. cepacia at 24 hours [3]: no bacteria were detectable; also recorded: effective killing activity over the entire duration of the 24-hour testing period | reduction of the starting culture of B. cepacia [3]: 99.9% | IC50 [4]: 7.8-15.6 | IC90 [4]: 15.6-31.3 | anti-viral activity against Vaccinia virus compared with LL-37 [5]: greater anti-viral activity than the wild-type peptide, LL-37

FRRIVQRIKDFLRNLVMRRKN [Peptide F11, FRRIVQRIKDFLRNLV MRRKN]
bactericidal activity against Bacillus anthracis spores (in words) [1]: improved bactericidal activity | duration of antibacterial activity, spores [1]: still effective at the end of the 24-hour period | change in cell number, exponential phase cells [2]: further reductions in cell number | duration of antibacterial activity, vegetative cells [2]: still effective at the end of the 24-hour period | activity against B. cepacia at 24 hours [3]: effective killing activity over the entire duration of the 24-hour testing period | reduction of the starting culture of B. cepacia [3]: ~99% | IC50 [4]: 7.8-15.6 | IC90 [4]: 7.8-15.6 | colonies recovered, S. aureus ([6]; 25 nM peptide): approximately 10^3 colonies/ml | killing of S. aureus compared with MAF-23 peptides ([6]; serial dilutions, 14 hours at 30° C., FIG. 5): killed S. aureus more effectively than the MA23 or N-terminally acetylated MA23 | killing of C. albicans compared with MAF-23 peptides [7]: killed C. albicans more effectively than the wild type peptides MAF23 and acetylated MAF23 | anti-viral activity against Vaccinia virus compared with LL-37 [5]: greater anti-viral activity than the wild-type peptide, LL-37

LLGDFFRKSKEKIGKEFKRIVQRIKDFLRNLVPRTES [LL-37, reference compound]
bactericidal activity against Bacillus anthracis spores (in words) [1]: better activity than MA-22 | duration of antibacterial activity, spores [1]: activity was lost within the 24 hour period | activity against Bacillus anthracis vegetative cells (in words) [2]: did not have activity | effect on growth of B. cepacia [3]: no effect on the growth | IC50 [4]: 15.6-31.3 | IC90 [4]: 15.6-31.3

LLGVFFRKRKAKIGKKFKRILQRIKDFRRNLVPRIKS [Peptide C11]
bactericidal activity against Bacillus anthracis spores (in words) [1]: improved bactericidal activity | effect on growth of B. cepacia [3]: prevent B. cepacia from growing | IC50 [4]: 15.6-31.3 | IC90 [4]: 31.3-62.5

VKRIVQRIKVFLRNLMPRSKS [Peptide G11]
bactericidal activity against Bacillus anthracis spores (in words) [1]: improved bactericidal activity | effect on growth of B. cepacia [3]: prevent B. cepacia from growing | IC50 [4]: 31.3-62.5 | IC90 [4]: 62.5-125 | ELISA binding signal after protease treatment (proteolytic resistance) [8]: increase signal strength

wild-type full length LL-37 peptide fused to 3×FLAG-10×His [reference compound]
binding to immobilised Bacillus subtilis membranes (ELISA signal) [9]: significant binding | ELISA binding signal after protease treatment (proteolytic resistance) [8]: abolished the signal
